These are literature values, as cited in patent publication US8969340B2, “Methods for treating chronic pelvic pain syndrome” (Northwestern University, priority 2004, dated 2015).

Where two headings read alike, the source gives them in different places.

The data set concerns the target T1, CCR-2 receptor (Homo sapiens, UniProt P41597).
T1 sequence (P41597 1-360 isoform P41597-2): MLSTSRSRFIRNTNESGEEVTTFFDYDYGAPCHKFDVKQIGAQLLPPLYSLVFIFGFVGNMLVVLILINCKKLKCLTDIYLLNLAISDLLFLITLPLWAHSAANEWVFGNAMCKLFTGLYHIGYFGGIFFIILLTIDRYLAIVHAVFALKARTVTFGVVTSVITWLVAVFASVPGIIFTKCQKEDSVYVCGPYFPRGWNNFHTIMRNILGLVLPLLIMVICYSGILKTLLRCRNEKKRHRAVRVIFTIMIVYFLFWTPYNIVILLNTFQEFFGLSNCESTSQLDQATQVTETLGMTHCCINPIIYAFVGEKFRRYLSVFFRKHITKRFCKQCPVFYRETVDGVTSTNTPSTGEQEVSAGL
Conditions: indolopiperidines.

For `O=S(=O)(NCCCCCN1CCC(c2c[nH]c3ccccc23)CC1)c1ccc(Cl)c(Cl)c1` [compound 10], the Ki (variation of X and R) was more than 10 µM.
Regarding `O=C(/C=C/c1ccc(Cl)c(Cl)c1)NCCN1CCC(c2c[nH]c3ccccc23)CC1` [compound 30], the Ki (variation of chain length n) is more than 10 µM.

In general, Ki refers to a measure of affinity in units of concentration, obtained from inhibition or displacement.
